Experimental data reported in the supplement of paper PMC4862054.

Assays:
Experiment in all cases: normalised response (% of control), CellTiter-Glo; higher = more viable cells (100 = DMSO, 0 = benzethonium chloride kill control)
Conditions in all cases: incubation time: 72 h
HCC1143 = system: HCC1143
Summary of the method: (§1)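 Each value is the plate-normalised signal at one concentration of the series. Breast cancer cell lines (20 µl suspension) were incubated 72 h in 384-well plates with compound at 5 concentrations in 10-fold steps over a compound-specific 10,000-fold range. CellTox Green and then CellTiter-Glo were read, and each plate was scaled to 0.1 % DMSO (100) and a positive kill control (0).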

DU-4475 = system: DU-4475
Summary of the method: as §1

BT-474 = system: BT-474
Summary of the method: as §1

CAL-51 = system: CAL-51
Summary of the method: as §1

HDQ-P1 = system: HDQ-P1
Summary of the method: as §1

HCC1937 = system: HCC1937
Summary of the method: as §1

CAL-120 = system: CAL-120
Summary of the method: as §1

MCF-10A = system: MCF-10A
Summary of the method: as §1

MDA-MB-436 = system: MDA-MB-436
Summary of the method: as §1

MFM-223 = system: MFM-223
Summary of the method: as §1

HCC1599 = system: HCC1599
Summary of the method: as §1

MDA-MB-468 = system: MDA-MB-468
Summary of the method: as §1

CAL-148 = system: CAL-148
Summary of the method: as §1

MDA-MB-453 = system: MDA-MB-453
Summary of the method: as §1

BT-549 = system: BT-549
Summary of the method: as §1

CAL-85-1 = system: CAL-85-1
Summary of the method: as §1

Hs578T = system: Hs578T
Summary of the method: as §1

MDA-MB-231 = system: MDA-MB-231
Summary of the method: as §1

SK-BR-3 = system: SK-BR-3
Summary of the method: as §1

SMILES	normalised response (HCC1143) [%]	normalised response (DU-4475) [%]	normalised response (BT-474) [%]	normalised response (CAL-51) [%]	normalised response (HDQ-P1) [%]	normalised response (HCC1937) [%]	normalised response (CAL-120) [%]	normalised response (MCF-10A) [%]	normalised response (MDA-MB-436) [%]	normalised response (MFM-223) [%]	normalised response (HCC1599) [%]	normalised response (MDA-MB-468) [%]	normalised response (CAL-148) [%]	normalised response (MDA-MB-453) [%]	normalised response (BT-549) [%]	normalised response (CAL-85-1) [%]	normalised response (Hs578T) [%]	normalised response (MDA-MB-231) [%]	normalised response (SK-BR-3) [%]
Cc1ccc(F)c(NC(=O)Nc2ccc(-c3cccc4[nH]nc(N)c34)cc2)c1 [Linifanib] (1 nM)	110	111	106	100	104	101	102	109	101	112	112	106	114	113	104	103	98.9	106	
C[C@]1(c2nc3c(C(N)=O)cccc3[nH]2)CCCN1 [Veliparib] (10 nM)	105	104	103	118	98.7	101	102	105	99	99.7	92.1	108	98.8	109	100	106	98.8	99	110
COc1cc(Nc2ncc3c(n2)-c2ccc(Cl)cc2C(c2c(F)cccc2OC)=NC3)ccc1C(=O)O [Alisertib] (10 nM)	93.9	98.2	93.4	86.4	97.1	95.9	96.1	93	89.5	88.6	102	87.7	91.9	88.3	96	94.4	97	95.3	70.4
CC(=O)O[C@]1(C(C)=O)CC[C@H]2[C@@H]3C=C(C)C4=CC(=O)CC[C@]4(C)[C@H]3CC[C@@]21C [Megestrol acetate] (1 nM)	95.2	97.5	95.9	120	99.8	95.4	94.9	101	101	98	96.5	88.8	99.9	131	97.7	98.9	96.8	98.5	99.2
CN(C)C/C=C/C(=O)Nc1cc2c(Nc3ccc(F)c(Cl)c3)ncnc2cc1O[C@H]1CCOC1 [Afatinib] (0.1 nM)	93.2	104	94.9	75	108	96.6	93.7	91.2	85.8	96.2	99	100	103	111	97.3	116	99.6	103	104
CN1CC[C@H](c2c(O)cc(O)c3c(=O)cc(-c4ccccc4Cl)oc23)[C@H](O)C1 [Alvocidib] (10 nM)	103	104	98.7	125	99.2	101	92.4	110	106	106	103	99.9	104	112	102	103	102	101	106
O=C(c1ccc(C(=O)N2CCC(N3CCCC3)CC2)c(Nc2ccccc2)c1)N1CCC(N2CCCC2)CC1 [UNC1215] (3 nM)	87.5	97.2	94.4	123	97.3	91.7	95.3	102	93.6	94.5	92.1	101	91	102	96.6	93.7	99.1	99.1	99
C=CCNC1=C2C[C@@H](C)C[C@H](OC)[C@H](O)[C@@H](C)/C=C(\C)[C@H](OC(N)=O)[C@@H](OC)/C=C\C=C(/C)C(=O)NC(=CC1=O)C2=O [Tanespimycin] (10 nM)	105	105	90.4	120	98.2	96.5	97.9	105	92.6	101	94.4	94.2	96.4	92.8	98.3	100	94.4	101	103
CCN1CCN(c2ccc(Nc3cc(N(C)C(=O)Nc4c(Cl)c(OC)cc(OC)c4Cl)ncn3)cc2)CC1 [NVP-BGJ398] (0.1 nM)	98.2	101	96.7	74.7	101	95.6	92	101	97.6	96.6	98.7	88.2	97.7	84.1	99.8	93.4	97.3	95.4	99
CC(=O)O[C@]1(C(C)=O)CC[C@H]2[C@@H]3C=C(C)C4=CC(=O)CC[C@]4(C)[C@H]3CC[C@@]21C [Megestrol acetate] (10 nM)	104	96.6	102	83.4	104	95	98.1	107	96.3	97.1	105	107	86.9	103	100	98	96.9	101	102
N#CC[C@H](C1CCCC1)n1cc(-c2ncnc3[nH]ccc23)cn1 [Ruxolitinib] (10 nM)	100	97.4	97	121	94	89.3	104	88.8	92.2	92.6	76.5	100	86	83.8	98.3	91.2	96.2	95.2	81.5
COc1cc(Nc2ncc3c(n2)-c2ccc(Cl)cc2C(c2c(F)cccc2OC)=NC3)ccc1C(=O)O [Alisertib] (1 nM)	91.6	97	98.9	116	94.7	88.4	96.7	84	99	92.9	90.2	95.9	89.3	95.9	95.6	91.9	95.6	93.3	94.2
Nc1nc(Cl)nc2c1ncn2[C@H]1C[C@H](O)[C@@H](CO)O1 [Cladribine] (1 nM)	104	106	99.3	94.2	97.8	101	97.5	104	102	105	102	102	103	113	97.2	102	105	100	
Clc1ccc(C(c2ccccc2Cl)C(Cl)Cl)cc1 (stereo not given) [Mitotane] (10 nM)	101	103	93.1	104	97	99	101	96.4	89.8	99	132	94	91.2	109	104	106	103	99.8	98.1
OC[C@H]1O[C@@H](n2cnc3c2N=CNC[C@H]3O)C[C@@H]1O [Pentostatin] (10 nM)	98.9	104	98	78	100	98.2	98	99.9	97.3	101	104	94.4	102	103	91.2	102	106	99.2	101
CS(=O)(=O)c1ccc(C(=O)Nc2ccc(Cl)c(-c3ccccn3)c2)c(Cl)c1 [Vismodegib] (10 nM)	93.9	96.4	90.2	126	99.4	96.4	95.2	90.3	91.5	94.3	100	92.9	91	89.4	96.4	102	95.4	90.8	105
O=C(c1ccc(C(=O)N2CCC(N3CCCC3)CC2)c(Nc2ccccc2)c1)N1CCC(N2CCCC2)CC1 [UNC1215] (30 nM)	97.3	97	98.7	77.9	94.3	96.7	102	103	104	91.4	118	97.4	95	91.5	97.8	96.7	103	90.2	100
Nc1ccn([C@@H]2O[C@H](CO)[C@@H](O)[C@@H]2O)c(=O)n1 [Cytarabine] (10 nM)	99.3	99.4	97.6	80.4	107	96.5	96.4	112	105	107	90.2	93.8	102	109	96.8	99	114	99.2	
Cc1c2oc3c(C)ccc(C(=O)N[C@@H]4C(=O)N[C@H](C(C)C)C(=O)N5CCC[C@H]5C(=O)N(C)CC(=O)N(C)[C@@H](C(C)C)C(=O)O[C@@H]4C)c3nc-2c(C(=O)N[C@@H]2C(=O)N[C@H](C(C)C)C(=O)N3CCC[C@H]3C(=O)N(C)CC(=O)N(C)[C@@H](C(C)C)C(=O)O[C@@H]2C)c(N)c1=O [Dactinomycin] (1 nM)	80.8	97	79.4	99.9	71.4	79.9	90.3	77.8	87	105	102	60.3	81.8	94	71.9	90.8	105	97.7	
COc1cccc2c1C(=O)c1c(O)c3c(c(O)c1C2=O)C[C@@](O)(C(=O)CO)C[C@@H]3O[C@H]1C[C@H](N)[C@H](O)[C@H](C)O1 [Doxorubicin] (1 nM)	99.1	108	101	107	101	98.6	93.6	110	107	105	120	104	95.7	113	94.2	103	100	99.5	
